Data on ten compounds can be found in publication PMC6952414 (Nature Communications, 2020).

The subject of series [1] is MDCK cells. The settings on record: 5 mM for 16 h.
The subject of series [2] is IAV strain PR8.
For series [3], the system named is IAV strain PR8. The class given is cell-based, IAV H1N1 strain A/Puerto Rico/8/1934 (PR8).
In series [4] the test system is IAV strain PR8. Also on record: species or system BALB/c mice. The settings on record: mouse, in vivo.
The subject of series [5] is IAV strain PR8. Briefly: microbe, parasite or virus in culture. Conditions: Influenza A virus, PR8, MDCK, read-out: EC50 (μM), IAV cytopathicity. On the technique in general: Protection from cytopathic effect is a common read-out in antiviral testing.
Series [6] has as its system IAV strain PR8. Type of series: cell-based, IAV H1N1 strain A/Puerto Rico/8/1934 (PR8). This is another data set of the same source.
Series [7] relates to IAV strain PR8. Type of series: cell-based, IAV H1N1 strain A/Puerto Rico/8/1934 (PR8). This is another data set of the same source.
Series [8] concerns IAV strain PR8. Type of series: cell-based, IAV H1N1 strain A/Puerto Rico/8/1934 (PR8). This is another data set of the same source.
The subject of a further series is virus NP mRNA. Type of series: cell-based, IAV H1N1 strain A/Puerto Rico/8/1934 (PR8).
In series [9] the test system is recombinant HA / α2-6sialyllactose-PAA. Type of series: binding, IAV H1N1 strain A/Puerto Rico/8/1934 (PR8).
For series [10], the target named is immobilized recombinant HA (Influenza A virus, UniProt P03452). The class given is binding, IAV H1N1 strain A/Puerto Rico/8/1934 (PR8).
Series [11] relates to IAV strain PR8. The class given is cell-based, IAV H1N1 strain A/Puerto Rico/8/1934 (PR8). This is another data set of the same source.
In series [12] the test system is IAV particles (strain PR8). Type of series: biochemical, IAV H1N1 strain A/Puerto Rico/8/1934 (PR8).
In another series the test system is HA1/HA2. The class given is binding, IAV H1N1 strain A/Puerto Rico/8/1934 (PR8).
The subject of another series is PR8-HA0. Type of series: binding, IAV H1N1 strain A/Puerto Rico/8/1934 (PR8).
In a further series the test system is PR8-HA1/HA2. The class given is binding, IAV H1N1 strain A/Puerto Rico/8/1934 (PR8).
Series [13] relates to IAV strain PR8. Type of series: cell-based, IAV H1N1 strain A/Puerto Rico/8/1934 (PR8). The source holds these as a separate data set.
Series [14] relates to IAV strain PR8. The class given is cell-based, IAV H1N1 strain A/Puerto Rico/8/1934 (PR8). The source holds these as a separate data set.
Series [15] concerns IAV strain PR8. Type of series: cell-based, IAV H1N1 strain A/Puerto Rico/8/1934 (PR8). The source holds these as a separate data set.
In series [16] the test system is IAV strain PR8. Type of series: cell-based, IAV H1N1 strain A/Puerto Rico/8/1934 (PR8). The source holds these as a separate data set.
Series [17] has as its system HA. Type of series: biochemical, IAV H1N1 strain A/Puerto Rico/8/1934 (PR8).
In series [18] the test system is recombinant HA derived from H5N1 A/chicken/Yamaguchi/7/2004 strain. Type of series: binding, Influenza A virus H5N1.
Series [19] has as its system HA. The class given is cell-based, IAV H1N1 strain A/Puerto Rico/8/1934 (PR8).
A further series concerns LC3-II. Type of series: cell-based, canine.
The subject of a further series is cell surface HA. Type of series: cell-based, IAV H1N1 strain A/Puerto Rico/8/1934 (PR8).
For series [20], the system named is MDCK cells.
In series [21] the test system is IAV strain PR8. This is another data set of the same source.
Series [22] relates to IAV strain PR8. Type of series: cell-based, IAV H1N1 strain A/Puerto Rico/8/1934 (PR8). This is another data set of the same source.

Where “and” joins values, the source holds several entries; their conditions need not be identical. Identical values can stand only once. Like-named read-outs stand apart in the source and are kept apart here. Positions of bridges follow the written chain, without caps; N, C: chain ends. Non-standard residues stand in square brackets, D forms with d. Chains are numbered I, II in the order given. No end group written: not given here. Ahx = NCCCCCC(=O)O

Sequence of immobilized recombinant HA (P03452 18-565 limits assumed): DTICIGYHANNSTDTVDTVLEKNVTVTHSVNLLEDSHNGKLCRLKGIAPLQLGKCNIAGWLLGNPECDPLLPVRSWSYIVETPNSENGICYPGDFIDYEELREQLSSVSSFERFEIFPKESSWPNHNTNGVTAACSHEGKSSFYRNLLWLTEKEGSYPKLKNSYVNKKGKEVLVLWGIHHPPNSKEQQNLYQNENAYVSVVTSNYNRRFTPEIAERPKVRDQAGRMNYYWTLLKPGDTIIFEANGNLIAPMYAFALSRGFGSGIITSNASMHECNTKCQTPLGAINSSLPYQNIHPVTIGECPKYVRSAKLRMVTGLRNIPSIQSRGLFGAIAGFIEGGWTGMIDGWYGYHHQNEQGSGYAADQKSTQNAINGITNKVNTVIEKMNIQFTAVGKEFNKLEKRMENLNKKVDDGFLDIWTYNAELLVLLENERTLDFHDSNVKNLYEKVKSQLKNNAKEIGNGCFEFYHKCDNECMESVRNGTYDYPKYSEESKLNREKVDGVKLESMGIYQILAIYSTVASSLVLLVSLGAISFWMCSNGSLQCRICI

In the case of 3-MA, in the series with MDCK cells [1], the “cell viability of uninfected MDCK cells (in words)” value was “did not affect the cell viability”.
In the case of `CSCC[C@H](N)C(=O)N[C@@H](C)C(=O)N[C@@H](C)C(=O)NCCCCCC(=O)NCCCC[C@H](NC(=O)CCCCCNC(=O)[C@H](C)NC(=O)[C@H](C)NC(=O)[C@@H](N)CCSC)C(=O)NCCCC[C@H](NC(=O)[C@H](CCCCNC(=O)CCCCCNC(=O)[C@H](C)NC(=O)[C@H](C)NC(=O)[C@@H](N)CCSC)NC(=O)CCCCCNC(=O)[C@H](C)NC(=O)[C@H](C)NC(=O)[C@@H](N)CCSC)C(=O)O` [MA-tet], in the series with IAV strain PR8 [2], the “inhibition of IAV cytopathicity (in words)” value is listed as “did not inhibit the cytopathicity”.
Consider `C[C@@H]1COCCN1c1cc(=O)n2c(n1)N(Cc1cncc(Cl)c1)[C@H](C(F)(F)F)CC2` [SAR405], for which the “effect on the dose-dependent anti-viral activity of PVF-tet (in words)” value with IAV strain PR8 [3] is given as “suppressed the dose-dependent anti-viral activity of PVF-tet”.
With `CC(=O)N[C@H]1[C@H]([C@H](O)[C@H](O)CO)OC(C(=O)O)=C[C@@H]1N=C(N)N` [Zanamivir, zanamivir], in the series on IAV strain PR8 [4], the “body weight loss (in words)” value is recorded as “attenuated the weight loss” and the “mice rescued from mortality” value was determined as 100%. In the series on IAV strain PR8 [5], the EC50 came to 0.2 µM.
In the case of `CO/C1=C\C(C)=C\[C@@H](C)[C@@H](O)[C@@H](C)C/C(C)=C/C=C/[C@H](OC)[C@@H]([C@@H](C)[C@@H](O)[C@H](C)[C@@]2(O)C[C@@H](O)[C@H](C)[C@@H](C(C)C)O2)OC1=O` [bafilomycin A1], in the series on IAV strain PR8 [6], the “NP-positive cells (%)” value was 5.3% and 2.2% and 2.8% and 3.8%; the “virus entry into target cells, NP-positive cells (in words)” value is reported as “completely inhibited virus entry into cells”. Further, the “time of administration after initial IAV infection at which cytopathicity is still inhibited” value with IAV strain PR8 [7] is recorded as below 5 h. The “fusion process monitored by fluorescently labeled virus (in words)” value in the series on IAV strain PR8 [8] is listed as “efficiently inhibited both events”. In the series on virus NP mRNA, the “NP mRNA synthesis (in words)” value is given as “efficiently inhibited both events”; the “Relative mRNA expression (fold increase)” value is 0.134 fold increase and 0.131 fold increase and 0.156 fold increase and 0.244 fold increase and 0.237 fold increase and 0.138 fold increase and 0.155 fold increase.
For “I: MARRPVNHFA[Ahx]KK-NH2 / II: MARRPVNHFA[Ahx]K / III: MARRPVNHFA[Ahx] / IV: MARRPVNHFA[Ahx] (amide I:12-IV:C, I:13-II:C, II:12-III:C) [PVF-tet]”, in [9], the “inhibition of the interaction between HA and α2,6-sialyllactose polymer (in words)” value is reported as “also efficiently inhibited the binding of HA to α2-6 sialyllactose-polymer”. For the same compound, in series [10], the Rmax came out at 1004 RU and the “binding to HA (in words)” value is reported as “bound to HA with high affinity”. Also, in the series on IAV strain PR8 [11], the “fold increase of virus titer over the initial virus titer” value is “about 50 fold” and the “inhibition of IAV propagation (in words)” value was “inhibited IAV propagation to a greater degree than fetuin”. Moreover, in the series on IAV strain PR8 [6], the “NP-positive cells (%)” value was 51.6% and 50.5% and 44.6% and 50.0%; the “virus entry into target cells, NP-positive cells (in words)” value was “did not inhibit virus entry into target cells”. For the same compound, the “time of administration after initial IAV infection at which cytopathicity is still inhibited” value in the series on IAV strain PR8 [7] was “up to 9 h”. In the series with IAV strain PR8 [8], the “fusion process monitored by fluorescently labeled virus (in words)” value is “did not affect the fusion process”. Moreover, the “NP mRNA synthesis (in words)” value in the series on virus NP mRNA is on record as “did not affect”. For the same compound, the “inhibition of IAV-induced hemagglutination (in words)” value in series [12] is given as “did not inhibit IAV-induced hemagglutination”. Also, in the series on HA1/HA2, the “effect of proteolytic cleavage of recombinant HA into HA1/HA2 on binding (in words)” value is given as “reduced the binding of PVF-tet to HA”. The “binding to non-infectious IAV particles with HA0 (in words)” value (“binding to non-infectious IAV particles” below) in the series with PR8-HA0 is given as “did bind with remarkable efficacy to non-infectious IAV particles with HA0”. Besides, the “binding to infectious IAV particles with HA1/HA2 (in words)” value with PR8-HA1/HA2 is recorded as “did not bind to infectious IAV particles with HA1/HA2”. Further, in the series on IAV strain PR8 [13], the cell viability was 103 ± 9% and 85 ± 9%; the “inhibition of cytopathicity when treated from 2 h post-infection for limited periods (in words)” value is recorded as “still efficiently inhibited the cytotoxicity”. In the series on IAV strain PR8 [14], the “Cell viabilitiy(%)” value was 136.2% and 97.5% and 109.1% and 71.8% and 88.5% and 71.7%; the “anti-IAV activity in the ABCA3-knockout clone (in words)” value was “retained its anti-IAV activity”. The “anti-viral activity in ULK1-knockout clones (in words)” value with IAV strain PR8 [15] was “significantly suppressed in the clones”. Besides, the “anti-viral activity in PIK3C3-knockout clones (in words)” value with IAV strain PR8 [16] is listed as “significantly suppressed in the clones”. The “formation of highly clustered HA (in words)” value in the series on HA [17] is on record as “induced the formation of highly clustered HA”. Moreover, in [18], the “binding to recombinant H5N1 HA (in words)” value is recorded as “bound”. In the series on HA [19], the “amount of newly synthesized HA in infected cells (in words)” value was “accumulated in a time-dependent manner”. Also, in the series on LC3-II, the “formation of LC3-II (in words)” value is “further enhanced the formation of LC3-II”. Further, in the series on cell surface HA, the “amount of HA on the plasma membrane (in words)” value is “marked reduction of the amount of HA that was present on the plasma membrane”. Further, the EC50 in the series with IAV strain PR8 [2] (24 h) was determined as 1400 nM. For the same compound, in the series on MDCK cells [20], the “effect of FBS on incorporation into cells (in words)” value is “enhanced by the presence of fetal bovine serum (FBS)” and the “incorporation into MDCK cells (in words)” value is “can be incorporated into MDCK cells at 37 °C”. Besides, the “inhibition of IAV cytopathicity in Caco-2 cells (in words)” value in the series with IAV strain PR8 [21] is “equally inhibited cytopathicity induced by both low and high MOI infection”.
For RRPVNHD [PVD-tet], the “inhibition of IAV cytopathicity (in words)” value in the series with IAV strain PR8 [2] is on record as “failed to inhibit IAV cytopathicity”. Further, the “incorporation into MDCK cells (in words)” value with MDCK cells [20] was “less cell-penetrating”.
Turning to RRRVNHH [RVH-tet], the “inhibition of IAV cytopathicity (in words)” value in the series with IAV strain PR8 [2] was “efficiently inhibited the cytopathicity in a dose-dependent manner”.
asialofetuin [reference compound]: the “binding to non-infectious IAV particles” value in the series on PR8-HA0 is on record as “exhibited no binding”. Also, the “binding to infectious IAV particles with HA1/HA2 (in words)” value with PR8-HA1/HA2 was “exhibited no binding”.
In the case of fetuin, the “inhibition of IAV cytopathicity at low MOI (in words)” value in the series with IAV strain PR8 [22] was “had the greatest inhibitory effect”. The “Virus propagation (fold increase)” value with IAV strain PR8 [11] was 350.0 fold increase and 466.7 fold increase and 483.3 fold increase. In [12], the “inhibition of IAV-induced hemagglutination (in words)” value is recorded as “efficiently inhibited the activity”. The “effect of proteolytic cleavage of recombinant HA into HA1/HA2 on binding (in words)” value in the series on HA1/HA2 is reported as “also reduced by the cleavage of HA”. In addition, in the series with PR8-HA0, the “binding to non-infectious IAV particles” value is given as “exhibited much more binding”. For the same compound, the “inhibition of IAV cytopathicity (in words)” value with IAV strain PR8 [2] is “showed no inhibitory effect at all”.

Usually EC50 stands for the concentration needed to bring the measured effect to its halfway point. One may read the cell viability as a read-out of living cells in per cent, often relative to untreated cells.
